Assay results: PubChem BioAssay AID1963872 (Molecular Pharmacology Branch, DTP, NCI, 2024)
Where “and” joins values, the source holds several entries; their conditions need not be identical. Equal entries are not always repeated.

Tested on: KRAS patient-derived spheroids with HUVEC/MSC, viability
Assay: Anticancer human tumor 519858-162-T-J1-PDC patient-derived colon adenocarcinoma cell line growth inhibition [KRAS2]
Conditions: for viability, T/C: stronger effect = lower value
Summary of the method: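 Combination screen of spheroid viability in tumor-cell co-cultures with endothelial (HUVEC) and mesenchymal stem cell stroma. Each agent was tested in half-log dilutions, topping at clinical Cmax or at 10 microM without a known Cmax.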

[1] = curve of first compound, second compound 0.1 µM
[2] = curve of first compound, second compound 0.316 µM
[3] = curve of first compound, second compound 1 µM
[4] = curve of first compound, second compound 3.16 µM
[5] = curve of first compound, second compound 10 µM
[6] = second compound 0.1 µM, first compound 0.0316 µM
[7] = second compound 0.1 µM, first compound 0.1 µM
[8] = second compound 0.1 µM, first compound 0.316 µM
[9] = second compound 0.1 µM, first compound 1 µM
[10] = second compound 0.1 µM, first compound 3.16 µM
[11] = second compound 0.1 µM, first compound 10 µM
[12] = second compound 0.316 µM, first compound 0.0316 µM
[13] = second compound 0.316 µM, first compound 0.1 µM
[14] = second compound 0.316 µM, first compound 0.316 µM
[15] = second compound 0.316 µM, first compound 1 µM
[16] = second compound 0.316 µM, first compound 3.16 µM
[17] = second compound 0.316 µM, first compound 10 µM
[18] = second compound 1 µM, first compound 0.0316 µM
[19] = second compound 1 µM, first compound 0.1 µM
[20] = second compound 1 µM, first compound 0.316 µM
[21] = second compound 1 µM, first compound 1 µM
[22] = second compound 1 µM, first compound 3.16 µM
[23] = second compound 1 µM, first compound 10 µM
[24] = second compound 3.16 µM, first compound 0.0316 µM
[25] = second compound 3.16 µM, first compound 0.1 µM
[26] = second compound 3.16 µM, first compound 0.316 µM
[27] = second compound 3.16 µM, first compound 1 µM
[28] = second compound 3.16 µM, first compound 3.16 µM
[29] = second compound 3.16 µM, first compound 10 µM
[30] = second compound 10 µM, first compound 0.0316 µM
[31] = second compound 10 µM, first compound 0.1 µM
[32] = second compound 10 µM, first compound 0.316 µM
[33] = second compound 10 µM, first compound 1 µM
[34] = second compound 10 µM, first compound 3.16 µM
[35] = second compound 10 µM, first compound 10 µM
[36] = curve of first compound, second compound 0.0316 µM
[37] = second compound 0.0316 µM, first compound 0.0316 µM
[38] = second compound 0.0316 µM, first compound 0.1 µM
[39] = second compound 0.0316 µM, first compound 0.316 µM
[40] = second compound 0.0316 µM, first compound 1 µM
[41] = second compound 0.0316 µM, first compound 3.16 µM
[42] = second compound 0.0316 µM, first compound 10 µM
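Note: compound exposure lasted seven days before readout.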
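Throughout, for viability, T/C: 100% = DMSO vehicle control viability.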

SMILES	IC50 [1]	IC50 [2]	IC50 [3]	IC50 [4]	viability, T/C [6]	viability, T/C [7]	viability, T/C [8]	viability, T/C [9]	viability, T/C [10]	viability, T/C [11]	viability, T/C [12]	viability, T/C [13]	viability, T/C [14]	viability, T/C [15]	viability, T/C [16]	viability, T/C [17]	viability, T/C [18]	viability, T/C [19]	viability, T/C [20]	viability, T/C [21]	other results
Cn1nccc1Nc1nccc(-c2cc3c(s2)C(C)(C)N(CCN2CCOCC2)C3=O)n1 + CC1OCC2(CCN(c3cnc(Sc4ccnc(N)c4Cl)c(N)n3)CC2)C1N	3830 nM	1740 nM	341 nM	188 nM	70.9%	71.8%	60.6%	64.3%	54.4%	33%	66.6%	52.6%	69.5%	62.7%	36.2%	25.1%	50.2%	53.7%	48.6%	41%	IC50 [5]: 144 nM; viability, T/C [22]: 28.1%; viability, T/C [23]: 30.8%; viability, T/C [24]: 53.6%; viability, T/C [25]: 62.3%; viability, T/C [26]: 41.5%; viability, T/C [27]: 35.6%; viability, T/C [28]: 23.4%; viability, T/C [29]: 28.1%; viability, T/C [30]: 47.5%; viability, T/C [31]: 63.1%; viability, T/C [32]: 38.5%; viability, T/C [33]: 36.8%; viability, T/C [34]: 26.5%; viability, T/C [35]: 34.1%
CCNC(=O)CC1N=C(c2ccc(Cl)cc2)c2cc(OC)ccc2-n2c(C)nnc21 (stereo not drawn) + C=CC(=O)N1CCN(c2nc(OCC3CCCN3C)nc3c2CCN(c2cccc4cccc(C)c24)C3)CC1CC#N	1730 nM	1330 nM	1440 nM	200 nM	85.5%	93.8%	79.7%	59.2%	40.4%	27.2%	101%	88.3%	66.4%	54.1%	40.4%	22.9%	89.3%	74.6%	70.4%	58.2%	IC50 [36]: 1530 nM; viability, T/C [37]: 90.5%; viability, T/C [38]: 76.3%; viability, T/C [39]: 92.1%; viability, T/C [40]: 57.6%; viability, T/C [41]: 42.6%; viability, T/C [42]: 31.6%; viability, T/C [22]: 35.8%; viability, T/C [23]: 20.6%; viability, T/C [24]: 69.9%; viability, T/C [25]: 55.2%; viability, T/C [26]: 46.9%; viability, T/C [27]: 33.2%; viability, T/C [28]: 29.6%; viability, T/C [29]: 18.4%
C=CC(=O)N1CCN(c2nc(OCC3CCCN3C)nc3c2CCN(c2cccc4cccc(C)c24)C3)CC1CC#N (stereo not drawn)	–	–	–	–	–	–	–	–	–	–	–	–	–	–	–	–	–	–	–	–	IC50 (compound alone, run of 07/12/2021): > 3160 nM; IC50 (compound alone, run of 07/19/2021): > 3160 nM; IC50 (compound alone, run of 07/26/2021): > 3160 nM and 2200 nM
CC1OCC2(CCN(c3cnc(Sc4ccnc(N)c4Cl)c(N)n3)CC2)C1N (stereo not drawn) + CNCc1ccccc1-c1csc(C(C)Nc2nc(C)nc3cc(OC)c(OC)cc23)c1	> 10000 nM	> 10000 nM	> 10000 nM	98.2 nM	97.1%	99.2%	85.4%	59.3%	54%	60.4%	80.6%	92%	68%	60.8%	69.7%	58.9%	72.9%	83.5%	77.3%	50.3%	IC50 [5]: < 31.6 nM; viability, T/C [22]: 35.3%; viability, T/C [23]: 66%; viability, T/C [24]: 66.6%; viability, T/C [25]: 53.9%; viability, T/C [26]: 36.1%; viability, T/C [27]: 43.1%; viability, T/C [28]: 42.7%; viability, T/C [29]: 41.2%; viability, T/C [30]: 10.2%; viability, T/C [31]: 34.6%; viability, T/C [32]: 0.2%; viability, T/C [33]: 0.15%; viability, T/C [34]: 6.03%; viability, T/C [35]: 13.6%
CC(C)NCC(C(=O)N1CCN(c2ncnc3c2C(C)CC3O)CC1)c1ccc(Cl)cc1 (stereo not drawn) + C=CC(=O)N1CCN(c2nc(OCC3CCCN3C)nc3c2CCN(c2cccc4cccc(C)c24)C3)CC1CC#N	> 10000 nM	> 10000 nM	> 10000 nM	1930 nM	95.2%	91.6%	78.4%	78%	90.3%	74.6%	64.7%	84.2%	75.5%	90%	82.5%	87%	72%	72.2%	48.3%	70.5%	IC50 [36]: > 10000 nM; viability, T/C [37]: 84.8%; viability, T/C [38]: 84.9%; viability, T/C [39]: 79.5%; viability, T/C [40]: 85.4%; viability, T/C [41]: 85.9%; viability, T/C [42]: 77.5%; viability, T/C [22]: 81.9%; viability, T/C [23]: 83.3%; viability, T/C [24]: 70.9%; viability, T/C [25]: 55.8%; viability, T/C [26]: 80.8%; viability, T/C [27]: 55.1%; viability, T/C [28]: 50.7%; viability, T/C [29]: 41.5%
